Source: patent publication US20230116972A1, “CD38 MODULATORS AND METHODS OF USE THEREOF” (Cytokinetics, Inc., priority 2021, published 2023)
pIC50: −log10 of the molar value.

Columns and labels:
[1] = biological target: T1, human CD38 (Homo sapiens, UniProt P28907); assay: human recombinant CD38 enzyme assay (hydrolysis of NAD+); assay type: biochemical; settings: human recombinant CD38, 0.4 nM enzyme, 62.5 μM NAD+; read-out: hCD38 BioChem IC50
T1 sequence (P28907 1-300): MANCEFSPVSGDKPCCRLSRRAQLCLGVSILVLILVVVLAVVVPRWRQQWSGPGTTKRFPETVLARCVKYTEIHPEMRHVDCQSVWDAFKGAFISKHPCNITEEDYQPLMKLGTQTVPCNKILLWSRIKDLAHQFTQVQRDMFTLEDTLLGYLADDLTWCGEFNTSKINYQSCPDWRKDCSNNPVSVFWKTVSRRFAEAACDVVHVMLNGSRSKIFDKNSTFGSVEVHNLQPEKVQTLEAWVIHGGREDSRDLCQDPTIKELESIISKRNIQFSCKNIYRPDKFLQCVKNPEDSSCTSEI
Summary of the method: (§1)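 Cell-free recombinant enzyme, NAD+ substrate, 60 min at RT. Stop/detect: ethanol/ADH plus semicarbazide and a CD38 inhibitor (15 min), then NaOH, then resazurin/diaphorase (15 min). Remaining NAD+ read as resorufin fluorescence, Ex/Em 540/590 nm. Inhibition fitted from dose responses.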

[2] = biological target: T2, mouse CD38 (Mus musculus, UniProt P56528); assay: mouse recombinant CD38 enzyme assay (hydrolysis of NAD+); assay type: biochemical; settings: read-out: mCD38 BioChem IC50
T2 sequence (P56528 1-304): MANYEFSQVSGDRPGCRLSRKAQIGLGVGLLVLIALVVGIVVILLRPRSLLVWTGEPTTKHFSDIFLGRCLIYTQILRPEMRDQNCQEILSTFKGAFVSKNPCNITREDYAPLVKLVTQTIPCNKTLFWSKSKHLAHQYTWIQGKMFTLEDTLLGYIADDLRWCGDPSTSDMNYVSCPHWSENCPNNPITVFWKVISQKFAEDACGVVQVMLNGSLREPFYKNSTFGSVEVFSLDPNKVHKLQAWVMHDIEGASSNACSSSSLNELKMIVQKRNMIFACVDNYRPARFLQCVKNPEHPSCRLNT
Summary of the method: as §1

[3] = biological target: T3, endogenous CD38 in HL60 cells (Homo sapiens, UniProt P28907); assay: cellular CD38 assay in HL60 cells (cellular NAD levels); assay type: cell-based; settings: all-trans retinoic acid, 24 hours, read-out: hCD38 HL60 ATRA NAD Cell Diaphorase IC50
T3 construct: endogenous in cells; host or cells: HL60 (leukemic cells, treated with all-trans retinoic acid)
T3 sequence (P28907 1-300): T1 sequence (P28907 1-300)
Method: The compounds described herein were also assayed for their ability to inhibit the endogenous CD38 in a native cellular environment in the cellular CD38 assay, which measures the ability of the compound to modulate cellular NAD levels. […] The assays were initiated by plating 20 μL of HL60 cells in culture medium, at a density of 20000 cells per well to a 384-well Corning™ Multiwell Plates. Compounds in DMSO were added to the plates in a volume of 120 nL using the Labcyte Echo Liquid Handlers. […] The plates are then incubated for 24 hours. 50 μL of a readout-solution containing 0.2 U/mL Diaphorase enzyme, 40 uM resazurin, 10 uM FMN, 0.8 U/mL Alcohol dehydrogenase, 3% ethanol, 0.4 mg/mL bovine serum albumin, 0.2% Triton X-100 in 100 mM Tris-HCl, 30 mM EDTA, pH 8.4. The plates were read for fluorescence (Excitation/Emission=540 nm/590 nm) using an EnVision plate reader after 60 mins of incubation at ambient temperature. Note that, in Table 5, the “Compound No” corresponds to the compound numbers in Table 1.

## COc1cc(-n2ccnc2)nc(C(=O)Nc2ccc(C(F)F)nc2)n1 [Compound 210, N-(6-(difluoromethyl)pyridin-3-yl)-4-(1H-imidazol-1-yl)-6-methoxypyrimidine-2-carboxamide]
[1]
  pIC50: 8.80
[2]
  pIC50: 8.92
[3]
  pIC50: 6.52

## O=C(N[C@H]1CCN(c2ccccc2)C1)c1nccc(-n2ccnc2)n1 [Compound 247, (S)-4-(1H-imidazol-1-yl)-N-(1-phenylpyrrolidin-3-yl)pyrimidine-2-carboxamide]
[1]
  pIC50: 6.63
[2]
  pIC50: 6.86
[3]
  pIC50: 4.84

## Cn1cncc1-c1cccc(C(=O)Nc2cccnc2)n1 [Compound 59, 6-(1-Methyl-1H-imidazol-5-yl)-N-(pyridin-3-yl)picolinamide]
[1]
  pIC50: 7.60
[2]
  pIC50: 7.74
[3]
  pIC50: 6.11

## Cc1ncccc1NC(=O)c1cccc(-n2ccnc2)n1 [Compound 27, 6-(1H-imidazol-1-yl)-N-(2-methylpyridin-3-yl)picolinamide]
[1]
  pIC50: 6.35
[2]
  pIC50: 7.19
[3]
  pIC50: 4.98

## O=C(Nc1ccc(C(F)(F)F)nc1)c1ccnc(-c2cncs2)n1 [Compound 86, 2-(thiazol-5-yl)-N-(6-(trifluoromethyl)pyridin-3-yl)pyrimidine-4-carboxamide]
[1]
  pIC50: 6.71
[2]
  pIC50: 6.66
[3]
  pIC50: 5.06

## O=C(Nc1cccnc1)c1ccnc(-n2ccnc2)n1 [Compound 37, 2-(1H-imidazol-1-yl)-N-(pyridin-3-yl)pyrimidine-4-carboxamide]
[1]
  pIC50: 8.40
[2]
  pIC50: 8.22
[3]
  pIC50: 6.47

## Cc1ccc(NC(=O)c2cc(C(F)(F)F)nc(-n3ccnc3)n2)cn1 [Compound 137, 2-(1H-imidazol-1-yl)-N-(6-methylpyridin-3-yl)-6-(trifluoromethyl)pyrimidine-4-carboxamide]
[1]
  pIC50: 8.10
[2]
  pIC50: 8.15
[3]
  pIC50: 6.06

## O=C(Nc1cccnc1)c1cc(-n2ccnc2)ccn1 [Compound 1, 4-(1H-imidazol-1-yl)-N-(pyridin-3-yl)picolinamide]
[1]
  pIC50: 6.61
[2]
  pIC50: 6.45
[3]
  pIC50: 5.70

## Cn1cncc1-c1nc(C(=O)N[C@H]2CCc3c(F)cccc32)cc(C2CCOCC2)n1 [Compound 228, (S)-N-(4-fluoro-2,3-dihydro-1H-inden-1-yl)-2-(1-methyl-1H-imidazol-5-yl)-6-(tetrahydro-2H-pyran-4-yl)pyrimidine-4-carboxamide]
[1]
  pIC50: 7.79
[2]
  pIC50: 8.33
[3]
  pIC50: 5.41

## O=C(Nc1cncc(F)c1)c1cc(-n2ccnc2)ccn1 [Compound 3, N-(5-fluoropyridin-3-yl)-4-(1H-imidazol-1-yl)picolinamide]
[1]
  pIC50: 5.96
[2]
  pIC50: 6.63
[3]
  pIC50: 5.17

## Cn1cncc1-c1nccc(C(=O)N[C@H]2CC[C@H](C(F)F)CC2)n1 [Compound 70, N-((1r,4r)-4-(difluoromethyl)cyclohexyl)-2-(1-methyl-1H-imidazol-5-yl)pyrimidine-4-carboxamide]
[1]
  pIC50: 8.30
[2]
  pIC50: 9.00
[3]
  pIC50: 6.11

## COc1cc(C(=O)Nc2ccc(C(F)(F)F)nc2)nc(-c2cncn2C)c1 [Compound 226, 4-methoxy-6-(1-methyl-1H-imidazol-5-yl)-N-(6-(trifluoromethyl)pyridin-3-yl)picolinamide]
[1]
  pIC50: 7.69
[2]
  pIC50: 7.90
[3]
  pIC50: 5.28

## Cn1cncc1-c1cc(C2CC2)nc(C(=O)Nc2ccc(C(F)F)nc2)n1 [Compound 206, 4-cyclopropyl-N-(6-(difluoromethyl)pyridin-3-yl)-6-(1-methyl-1H-imidazol-5-yl)pyrimidine-2-carboxamide]
[1]
  pIC50: 8.41
[2]
  pIC50: 8.77
[3]
  pIC50: 6.24

## Cn1cncc1-c1nccc(C(=O)N[C@H]2CC[C@H](C(F)(F)F)CC2)n1 [Compound 83, 2-(1-methyl-1H-imidazol-5-yl)-N-((1r,4r)-4-(trifluoromethyl)cyclohexyl)pyrimidine-4-carboxamide]
[1]
  pIC50: 7.96
[2]
  pIC50: 8.22
[3]
  pIC50: 5.56

## CC(C)(O)c1ccc(NC(=O)c2nccc(-n3ccnc3)n2)cc1 [Compound 357, N-(4-(2-hydroxypropan-2-yl)phenyl)-4-(1H-imidazol-1-yl)pyrimidine-2-carboxamide]
[1]
  pIC50: 8.24
[2]
  pIC50: 7.99
[3]
  pIC50: 6.03

## O=C(N[C@H]1CC[C@H](O)CC1)c1cc(C(F)(F)F)cc(-n2ccnc2)n1 [Compound 62, N-(4-hydroxycyclohexyl)-6-(1H-imidazol-1-yl)-4-(trifluoromethyl)picolinamide]
[1]
  pIC50: 7.21
[2]
  pIC50: 7.92
[3]
  pIC50: 5.17

## COC(=O)[C@H]1CC[C@H](NC(=O)c2ccnc(-c3cncn3C)n2)CC1 [Compound 107, methyl (1r,4r)-4-(2-(1-methyl-1H-imidazol-5-yl)pyrimidine-4-carboxamido)cyclohexane-1-carboxylate]
[1]
  pIC50: 8.05
[2]
  pIC50: 8.70
[3]
  pIC50: 5.89

## Cn1cncc1-c1ccnc(C(=O)N[C@H]2C[C@H](c3ccc(F)cc3F)C2)n1 [Compound 243, N-((1r,3r)-3-(2,4-difluorophenyl)cyclobutyl)-4-(1-methyl-1H-imidazol-5-yl)pyrimidine-2-carboxamide]
[1]
  pIC50: 7.55
[2]
  pIC50: 7.84
[3]
  pIC50: 5.43

## O=C(N[C@H]1CC[C@H](C(F)F)CC1)c1cccc(-n2ccnc2)n1 [Compound 64, N-(4-(difluoromethyl)cyclohexyl)-6-(1H-imidazol-1-yl)picolinamide]
[1]
  pIC50: 7.47
[2]
  pIC50: 8.15
[3]
  pIC50: 5.62

## COC(=O)[C@H]1CC[C@H](NC(=O)c2ccnc(-n3ccnc3)n2)CC1 [Compound 106, methyl (1r,4r)-4-(2-(1H-imidazol-1-yl)pyrimidine-4-carboxamido)cyclohexane-1-carboxylate]
[1]
  pIC50: 7.66
[2]
  pIC50: 8.05
[3]
  pIC50: 5.74

## O=C(Nc1cccnc1)c1cccc(-n2ccnc2)c1 [Compound 9, 3-(1H-imidazol-1-yl)-N-(pyridin-3-yl)benzamide]
[1]
  pIC50: 5.91
[2]
  pIC50: 6.36
[3]
  pIC50: 5.22

## COc1cc(-c2cncn2C)nc(C(=O)Nc2ccc(C(F)F)nc2)n1 [Compound 201, N-(6-(difluoromethyl)pyridin-3-yl)-4-methoxy-6-(1-methyl-1H-imidazol-5-yl)pyrimidine-2-carboxamide]
[1]
  pIC50: 8.59
[2]
  pIC50: 8.89
[3]
  pIC50: 6.50

## O=C(Nc1ccc(C(F)F)nc1)c1cc(C2CC2)nc(-n2ccnc2)n1 [Compound 162, 6-cyclopropyl-N-(6-(difluoromethyl)pyridin-3-yl)-2-(1H-imidazol-1-yl)pyrimidine-4-carboxamide]
[1]
  pIC50: 8.52
[2]
  pIC50: 9.00
[3]
  pIC50: 6.14

## Cn1cncc1-c1ccnc(C(=O)NC23CC(C(C)(C)O)(C2)C3)n1 [Compound 294, N-(3-(2-hydroxypropan-2-yl)bicyclo[1.1.1]pentan-1-yl)-4-(1-methyl-1H-imidazol-5-yl)pyrimidine-2-carboxamide]
[1]
  pIC50: 6.60
[2]
  pIC50: 6.76
[3]
  pIC50: 5.35

## COc1cc(C(=O)Nc2ccc(C(F)F)nc2)nc(-c2cncs2)c1 [Compound 163, N-(6-(Difluoromethyl)pyridin-3-yl)-4-methoxy-6-(thiazol-5-yl)picolinamide]
[1]
  pIC50: 6.43
[2]
  pIC50: 7.09
[3]
  pIC50: 4.93

## CO[C@H]1CC[C@H](NC(=O)c2nc(C)cc(-c3cncn3C)n2)CC1 [Compound 191, N-((1r,4r)-4-methoxycyclohexyl)-4-methyl-6-(1-methyl-1H-imidazol-5-yl)pyrimidine-2-carboxamide]
[1]
  pIC50: 7.45
[2]
  pIC50: 8.35
[3]
  pIC50: 5.48

## Cn1cncc1-c1ccnc(C(=O)N[C@H]2C[C@H](Oc3ccccc3)C2)n1 [Compound 220, 4-(1-methyl-1H-imidazol-5-yl)-N-((1r,3r)-3-phenoxycyclobutyl)pyrimidine-2-carboxamide]
[1]
  pIC50: 6.84
[2]
  pIC50: 7.28
[3]
  pIC50: 5.31
